{"source": "paper PMC9878342", "about": "“Gossypol acetate: A natural polyphenol derivative with antimicrobial activities against the essential cell division protein FtsZ” (Frontiers in Microbiology, 2023)", "target": "T1, FtsZ (SaFtsZ) (Staphylococcus aureus, UniProt P0A031)", "T1 construct": "6× His-FtsZ (N-terminal 6× His tag)", "T1 sequence (P0A031 1-390)": "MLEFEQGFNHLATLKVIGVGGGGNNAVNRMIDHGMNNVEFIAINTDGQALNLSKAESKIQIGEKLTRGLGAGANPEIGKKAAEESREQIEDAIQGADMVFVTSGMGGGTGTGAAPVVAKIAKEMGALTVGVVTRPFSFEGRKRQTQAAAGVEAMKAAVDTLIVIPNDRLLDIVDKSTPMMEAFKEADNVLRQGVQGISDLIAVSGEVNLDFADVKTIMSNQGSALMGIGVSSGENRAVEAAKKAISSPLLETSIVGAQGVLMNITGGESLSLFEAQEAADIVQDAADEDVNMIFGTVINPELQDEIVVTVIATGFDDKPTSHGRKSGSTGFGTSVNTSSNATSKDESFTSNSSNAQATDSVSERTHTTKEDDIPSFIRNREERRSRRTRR", "assay": "isothermal titration calorimetry; also GTPase inhibition and […]° light scattering", "assay_type": "binding", "data": [{"smiles": "Cc1cc2c(C(C)C)c(O)c(O)c(C=O)c2c(O)c1-c1c(C)cc2c(C(C)C)c(O)c(O)c(C=O)c2c1O", "note": "[S2303, Gossypol acetate]", "values": [{"measurement": "Kd", "result": "3.6 ± 0.7", "unit": "µM"}]}]}
